Measured values as given in PMC6391272, “Rex in Caldicellulosiruptor bescii: Novel regulon members and its effect on the production of ethanol and overflow metabolites” (MicrobiologyOpen, 2018).

Biological target: T1, Rex (recombinant Rex, rRex) (Caldicellulosiruptor bescii, UniProt B9MPL7)
T1 construct: E. coli T7 Express; purified with IMPACT kit protocol
T1 sequence (B9MPL7 1-217): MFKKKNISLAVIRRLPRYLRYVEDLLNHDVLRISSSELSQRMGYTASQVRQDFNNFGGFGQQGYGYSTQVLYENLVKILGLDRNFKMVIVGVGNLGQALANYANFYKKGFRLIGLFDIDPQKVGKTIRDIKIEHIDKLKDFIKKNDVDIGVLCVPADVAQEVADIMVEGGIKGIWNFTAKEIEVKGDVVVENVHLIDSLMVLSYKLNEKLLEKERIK
Test: electromobility shift assay (biotin-labelled […] bp operator dsDNA)
Conditions: room temperature, 30 min; loss of operator DNA binding; NADH/NAD+ cofactor pool 1-100 umol/L

## NC(=O)C1=CN([C@@H]2O[C@H](COP(=O)(O)OP(=O)(O)OC[C@H]3O[C@@H](n4cnc5c(N)ncnc54)[C@H](O)[C@@H]3O)[C@@H](O)[C@H]2O)C=CC1 [NADH]
  electromobility shift assay (biotin-labelled 50 bp operator dsDNA): DNA binding by Rex is disrupted by NADH and is sensitive to NADH/NAD ^+ ratio
